Data as given in patent publication US8614242B2, “1-(heterocyclic carbonyl)-2-substituted pyrrolidines” (Bayer Intellectual Property GmbH, priority 2010, dated 2013).

What was measured:
Sphaerotheca fuliginea = test: In vivo preventive test on Sphaerotheca fuliginea (cucumber); settings: 500 ppm of active ingredient, evaluated 7 days after inoculation
Leptosphaeria nodorum = test: In vivo preventive test on Leptosphaeria nodorum (wheat); settings: 500 ppm of active ingredient, evaluated 8 days after inoculation
Description: After the spray coating has been dried, the plants are sprayed with a spore suspension of Leptosphaeria nodorum.

Puccinia triticina = test: In vivo preventive test on Puccinia triticina (wheat); settings: 500 ppm of active ingredient, evaluated 8 days after inoculation
Experimental: In Vivo Preventive Test on Puccinia Triticina (Wheat)
Solvent: 49 parts by weight of N,N-dimethylacetamide
Emulsifier: 1 part by weight of alkylaryl polyglycol ether
After the spray coating has been dried, the plants are sprayed with a spore suspension of Puccinia triticina.
The test is evaluated 8 days after the inoculation.

Venturia inaequalis = test: In vivo preventive test on Venturia inaequalis (apple scab); settings: 100 ppm of active ingredient, evaluated 10 days after inoculation
Experimental: After the spray coating has dried on, the plants are inoculated with an aqueous conidia suspension of the causal agent of apple scab (Venturia inaequalis) and then remain for 1 day in an incubation cabinet at approximately 20° C. and a relative atmospheric humidity of 100%.

Pyrenophora teres = test: In vivo preventive test on Pyrenophora teres (barley); settings: 500 ppm of active ingredient, evaluated 7-9 days after inoculation
Experimental: The plants remain for 48 hours in an incubation cabinet at 22° C. and a relative atmospheric humidity of 100%.

[1] = system: Fusarium nivale (var. majus); test: In vivo preventive test on Fusarium nivale (wheat); settings: 500 ppm of active ingredient, evaluated 5 days after inoculation
Description: After the spray coating has been dried, the plants are slightly injured by using a sandblast and afterwards they are sprayed with a conidia suspension of Fusarium nivale (var. majus).

[2] = system: Blumeria graminis f.sp. hordei; test: In vivo preventive test on Blumeria graminis (barley); settings: 500 ppm of active ingredient, evaluated 7 days after inoculation
Description: After the spray coating has been dried, the plants are dusted with spores of Blumeria graminis f.sp. hordei.

[3] = logP by HPLC on reversed-phase column (EEC Directive 79/831 Annex V.A8); assay type: physicochemical; settings: for logP: HPLC on reversed-phase column (C 18), 40° C., 0.1% aqueous formic acid and acetonitrile, linear gradient 10% to 90% acetonitrile
Experimental: In table 1, the logP values were determined in accordance with EEC Directive 79/831 Annex V.A8 by HPLC (High Performance Liquid Chromatography) on a reversed-phase column (C 18), using the method described below: Temperature: 40° C.; Mobile phases: 0.1% aqueous formic acid and acetonitrile; linear gradient from 10% acetonitrile to 90% acetonitrile. Calibration was carried out using unbranched alkan-2-ones (comprising 3 to 16 carbon atoms) with known logP values (determination of the logP values by the retention times using linear interpolation between two successive alkanones). lambda-max-values were determined using UV-spectra from 200 nm to 400 nm and the peak values of the chromatographic signals.

Septoria tritici = test: In vivo preventive test on Septoria tritici (wheat); settings: 500 ppm of active ingredient, evaluated 21 days after inoculation
Description: After the spray coating has been dried, the plants are sprayed with a spore suspension of Septoria tritici.

Alternaria solani = test: In vivo preventive test on Alternaria solani (tomato); settings: 500 ppm of active ingredient, evaluated 7 days after inoculation
Experimental: The plants remain for one day in an incubation cabinet at approximately 22° C. and a relative atmospheric humidity of 100%. Then the plants are placed in an incubation cabinet at approximately 20° C. and a relative atmospheric humidity of 96%.

Rhizoctonia solani = test: In vivo protective test on Rhizoctonia solani (rice); settings: 250 ppm of active ingredient, evaluated 4 days after inoculation
Description: In Vivo Protective Test on Rhizoctonia Solani (Rice)

Pyricularia oryzae = assay type: in vivo; settings: rice, protective, 250 ppm of active ingredient, evaluated 5 days after inoculation
Cochliobolus miyabeanus = settings: rice, protective, 250 ppm of active ingredient, evaluated 4 days after inoculation
Experimental: In Vivo Protective Test on Cochliobolus Miyabeanus (Rice)
Solvent: 28.5 parts by weight of acetone
Emulsifier: 1.5 part by weight of polyoxyethylene alkyl phenyl ether
One day after spraying, the plants are inoculated with an aqueous spore suspension of the causal agent of rice brown spot (Cochliobolus miyabeanus). The plants are then placed in an incubator at approximately 25° C. and a relative atmospheric humidity of approximately 100% for 1 day.
The test is evaluated 4 days after the inoculation.

Phakopsora pachyrhizi = test: In vivo protective test on Phakopsora pachyrhizi (soybeans); settings: 250 ppm of active ingredient, evaluated 11 days after inoculation
Experimental: In Vivo Protective Test on Phakopsora Pachyrhizi (Soybeans)
The test is evaluated 11 days after the inoculation.

Cn1nc(C(F)F)c(C(=O)N2CCCC2Cc2cccc(Cl)c2)c1F (racemic) [Example 64]
Efficacy (Sphaerotheca fuliginea): 93% | Efficacy (Leptosphaeria nodorum): 93% | Efficacy (Puccinia triticina): 100% | Efficacy (Venturia inaequalis): 100% | Efficacy (Pyrenophora teres): 100% | Efficacy [1]: 100% | Efficacy [2]: 100% | logP [3]: 3.25 | Efficacy (Septoria tritici): 100%

Cn1nc(C(F)F)c(C(=O)N2CCCC2Cc2ccc(Cl)cc2)c1F (racemic) [Example 65]
Efficacy (Sphaerotheca fuliginea): 95% | Efficacy (Leptosphaeria nodorum): 100% | Efficacy (Venturia inaequalis): 100% | Efficacy (Pyrenophora teres): 100% | Efficacy (Alternaria solani): 94% | Efficacy [1]: 100% | Efficacy [2]: 100% | logP [3]: 3.29 | Efficacy (Septoria tritici): 100%

Cc1cc(C)c(CC2CCCN2C(=O)c2c(C(F)F)nn(C)c2F)cc1C (racemic) [Example 66]
Efficacy (Rhizoctonia solani): 80% | Efficacy (Pyricularia oryzae): 97% | Efficacy (Cochliobolus miyabeanus): 98% | Efficacy (Sphaerotheca fuliginea): 88% | Efficacy (Puccinia triticina): 100% | Efficacy (Venturia inaequalis): 100% | Efficacy (Pyrenophora teres): 100% | Efficacy (Alternaria solani): 100% | Efficacy [1]: 100% | logP [3]: 3.81 | Efficacy (Septoria tritici): 90%

Cn1nc(C(F)F)c(C(=O)N2CCCC2Cc2c(F)cccc2Cl)c1F (racemic) [Example 67]
Efficacy (Sphaerotheca fuliginea): 95% | Efficacy (Leptosphaeria nodorum): 100% | Efficacy (Puccinia triticina): 94% | Efficacy (Venturia inaequalis): 100% | Efficacy (Pyrenophora teres): 100% | Efficacy (Alternaria solani): 100% | Efficacy [1]: 100% | Efficacy [2]: 100% | logP [3]: 3.15 | Efficacy (Septoria tritici): 100%

Cn1nc(C(F)F)c(C(=O)N2CCCC2c2cccc(C(F)(F)F)c2)c1F (stereo not shown) [Example 17]
Efficacy (Pyricularia oryzae): 92% | Efficacy (Cochliobolus miyabeanus): 98% | Efficacy (Sphaerotheca fuliginea): 95% | Efficacy (Pyrenophora teres): 100% | Efficacy (Alternaria solani): 100% | logP [3]: 3.06

Cn1nc(C(F)F)c(C(=O)N2CCCC2Cc2ccccc2)c1F (stereo not shown) [Example 52]
Efficacy (Leptosphaeria nodorum): 100% | Efficacy (Puccinia triticina): 89% | Efficacy (Venturia inaequalis): 100% | Efficacy (Pyrenophora teres): 100% | Efficacy (Alternaria solani): 100% | Efficacy [1]: 100% | Efficacy [2]: 100% | logP [3]: 2.84 | Efficacy (Septoria tritici): 100%

CCC(c1ccccc1)C1CCCN1C(=O)c1c(C(F)F)nn(C)c1F (stereo not shown) [Example 53]
Efficacy (Cochliobolus miyabeanus): 95% | Efficacy (Sphaerotheca fuliginea): 93% | Efficacy (Leptosphaeria nodorum): 100% | Efficacy (Puccinia triticina): 88% | Efficacy (Venturia inaequalis): 100% | Efficacy (Pyrenophora teres): 100% | Efficacy (Alternaria solani): 94% | Efficacy [1]: 100% | Efficacy [2]: 100% | protection (efficacy) (Phakopsora pachyrhizi): 85% | logP [3]: 3.48 | Efficacy (Septoria tritici): 100%

Cc1ccccc1CC1CCCN1C(=O)c1c(C(F)F)nn(C)c1F (stereo not shown) [Example 54]
Efficacy (Sphaerotheca fuliginea): 95% | Efficacy (Leptosphaeria nodorum): 100% | Efficacy (Puccinia triticina): 100% | Efficacy (Venturia inaequalis): 100% | Efficacy (Pyrenophora teres): 95% | Efficacy (Alternaria solani): 94% | Efficacy [1]: 100% | Efficacy [2]: 100% | logP [3]: 3.13 | Efficacy (Septoria tritici): 100%

Cc1cccc(CC2CCCN2C(=O)c2c(C(F)F)nn(C)c2F)c1 (stereo not shown) [Example 55, [3-(difluoromethyl)-5-fluoro-1-methyl-1H-pyrazol-4-yl][2-(3-methyl-benzyl)pyrrolidin-1-yl]methanone]
Efficacy (Sphaerotheca fuliginea): 95% | Efficacy (Leptosphaeria nodorum): 100% | Efficacy (Puccinia triticina): 100% | Efficacy (Venturia inaequalis): 100% | Efficacy (Pyrenophora teres): 100% | Efficacy [1]: 100% | Efficacy [2]: 100% | chromatographic logP [3]: 3.21 | Efficacy (Septoria tritici): 100%

Cc1ccc(CC2CCCN2C(=O)c2c(C(F)F)nn(C)c2F)cc1 (stereo not shown) [Example 56]
Efficacy (Sphaerotheca fuliginea): 81% | Efficacy (Leptosphaeria nodorum): 93% | Efficacy (Puccinia triticina): 89% | Efficacy (Venturia inaequalis): 98% | Efficacy (Pyrenophora teres): 100% | Efficacy (Alternaria solani): 94% | Efficacy [1]: 100% | Efficacy [2]: 100% | logP [3]: 3.23 | Efficacy (Septoria tritici): 100%

Cn1nc(C(F)F)c(C(=O)N2CCCC2Cc2ccccc2F)c1F (stereo not shown) [Example 57]
Efficacy (Sphaerotheca fuliginea): 94% | Efficacy (Leptosphaeria nodorum): 100% | Efficacy (Puccinia triticina): 100% | Efficacy (Venturia inaequalis): 100% | Efficacy (Pyrenophora teres): 100% | Efficacy (Alternaria solani): 94% | Efficacy [1]: 100% | Efficacy [2]: 100% | logP [3]: 2.86 | Efficacy (Septoria tritici): 100%

Cn1nc(C(F)F)c(C(=O)N2CCCC2Cc2cccc(F)c2)c1F (stereo not shown) [Example 58]
Efficacy (Sphaerotheca fuliginea): 96% | Efficacy (Leptosphaeria nodorum): 100% | Efficacy (Puccinia triticina): 100% | Efficacy (Venturia inaequalis): 99% | Efficacy (Pyrenophora teres): 100% | Efficacy (Alternaria solani): 89% | Efficacy [1]: 100% | Efficacy [2]: 100% | logP [3]: 2.90 | Efficacy (Septoria tritici): 100%

Cn1nc(C(F)F)c(C(=O)N2CCCC2Cc2ccccc2Cl)c1F (stereo not shown) [Example 60]
Efficacy (Sphaerotheca fuliginea): 95% | Efficacy (Leptosphaeria nodorum): 100% | Efficacy (Puccinia triticina): 100% | Efficacy (Venturia inaequalis): 100% | Efficacy (Pyrenophora teres): 100% | Efficacy (Alternaria solani): 100% | Efficacy [1]: 100% | Efficacy [2]: 100% | logP [3]: 3.06

Cn1nc(C(F)F)c(C(=O)N2CCC[C@H]2COc2c(Cl)cc(Cl)cc2Cl)c1F [Example 82]
Efficacy (Rhizoctonia solani): 100% | Efficacy (Pyricularia oryzae): 98% | Efficacy (Cochliobolus miyabeanus): 93% | Efficacy (Sphaerotheca fuliginea): 100% | Efficacy (Puccinia triticina): 100% | Efficacy [1]: 100% | Efficacy [2]: 100% | logP [3]: 4.24 | Efficacy (Septoria tritici): 86%
